ChEMBL document CHEMBL4014340, “Identification of a Potent, Selective, and Efficacious Phosphatidylinositol 3-Kinase δ (PI3Kδ) Inhibitor for the Treatment of Immunological Disorders” (J Med Chem, 2017)

Columns and labels:
[1] = Half life in mouse liver microsomes aat 0.5 uM preincubated for 6 mins followed by NADPH addition measured after 10 mins by LC-MS/MS analysis; type: ADME, microsome
[2] = Metabolic stability in mouse liver microsomes assessed as parent compound remaining at 0.5 uM preincubated for 6 mins followed by NADPH addition measured after 10 mins by LC-MS/MS analysis; type: ADME, microsome; details: read-out: Stability
[3] = tested on: Oryctolagus cuniculus; experiment: Effect on QTc time interval in New Zealand White rabbit administered as 10 mins iv infusion measured for 2 mins by ECG analysis; type: ADME, organism-based; details: in vivo
[4] = Cmax in Balb/c mouse at 10 mg/kg, po; type: ADME, organism-based; design: dose 10 mg/kg, route oral; details: in vivo
[5] = Metabolic stability in rat liver microsomes assessed as parent compound remaining at 0.5 uM preincubated for 6 mins followed by NADPH addition measured after 10 mins by LC-MS/MS analysis; type: ADME, microsome; details: read-out: Stability
[6] = AUC (0 to 24 hrs) in Balb/c mouse at 10 mg/kg, po; type: ADME, organism-based; design: time < 24 hr, dose 10 mg/kg, route oral; details: in vivo
[7] = Half life in human liver microsomes aat 0.5 uM preincubated for 6 mins followed by NADPH addition measured after 10 mins by LC-MS/MS analysis; type: ADME, microsome
[8] = Half life in rat liver microsomes aat 0.5 uM preincubated for 6 mins followed by NADPH addition measured after 10 mins by LC-MS/MS analysis; type: ADME, microsome
[9] = Metabolic stability in human liver microsomes assessed as parent compound remaining at 0.5 uM preincubated for 6 mins followed by NADPH addition measured after 10 mins by LC-MS/MS analysis; type: ADME, microsome; details: read-out: Stability
[10] = Clearance in mouse at 3 mg/kg, iv; type: ADME, organism-based; details: in vivo
[11] = Volume of distribution at steady state in mouse at 3 mg/kg, iv; type: ADME, organism-based; details: in vivo, read-out: Vdss
[12] = Volume of distribution at steady state in monkey at 1 mg/kg, iv; type: ADME, organism-based, Macaca mulatta; details: rhesus monkey, in vivo, read-out: Vdss
[13] = Cmax in rat at 5 mg/kg, po; type: ADME, organism-based; design: dose 5 mg/kg, route oral; details: in vivo
[14] = Half life in dog at 1 mg/kg, iv; type: ADME, organism-based, Canis lupus familiaris; details: in vivo
[15] = tested on: Canis familiaris; experiment: Oral bioavailability in dog at 2 mg/kg; type: ADME, organism-based, Canis lupus familiaris; details: in vivo
[16] = Half life in mouse at 3 mg/kg, iv; type: ADME, organism-based; details: in vivo
[17] = tested on: Plasma; experiment: Drug uptake in New Zealand White rabbit plasma at 10 mg/kg, iv administered as 10 mins infusion measured up to 30 mins post dose; type: ADME, organism-based, Oryctolagus cuniculus; details: in vivo
[18] = Clearance in monkey at 1 mg/kg, iv; type: ADME, organism-based, Macaca mulatta; details: rhesus monkey, in vivo
[19] = Cmax in mouse at 6 mg/kg, po; type: ADME, organism-based; design: dose 6 mg/kg, route oral; details: in vivo
[20] = Volume of distribution at steady state in rat at 2 mg/kg, iv; type: ADME, organism-based; details: in vivo, read-out: Vdss
[21] = Oral bioavailability in mouse at 6 mg/kg; type: ADME, organism-based; details: in vivo
[22] = tested on: Plasma; experiment: Free plasma concentration in New Zealand White rabbit at 10 mg/kg, iv administered as 10 mins infusion measured up to 30 mins post dose; type: ADME, organism-based, Oryctolagus cuniculus; details: in vivo
[23] = tested on: Plasma; experiment: Drug uptake in New Zealand White rabbit plasma at 3 mg/kg, iv administered as 10 mins infusion measured up to 30 mins post dose; type: ADME, organism-based, Oryctolagus cuniculus; details: in vivo
[24] = Oral bioavailability in rat at 5 mg/kg; type: ADME, organism-based; details: in vivo
[25] = Half life in rat at 2 mg/kg, iv; type: ADME, organism-based; details: in vivo
[26] = Cmax in dog at 2 mg/kg, po; type: ADME, organism-based, Canis lupus familiaris; design: dose 2 mg/kg, route oral; details: in vivo
[27] = Volume of distribution at steady state in dog at 1 mg/kg, iv; type: ADME, organism-based, Canis lupus familiaris; details: in vivo, read-out: Vdss
[28] = tested on: Plasma; experiment: Free plasma concentration in New Zealand White rabbit at 20 mg/kg, iv administered as 10 mins infusion measured up to 30 mins post dose; type: ADME, organism-based, Oryctolagus cuniculus; details: in vivo
[29] = Half life in monkey at 1 mg/kg, iv; type: ADME, organism-based, Macaca mulatta; details: rhesus monkey, in vivo
[30] = Clearance in rat at 2 mg/kg, iv; type: ADME, organism-based; details: in vivo
[31] = tested on: Oryctolagus cuniculus; experiment: Effect on QTc time interval in New Zealand White rabbit at 20 mg/kg, iv administered as 10 mins infusion measured for 2 mins by ECG analysis; type: ADME, organism-based; details: in vivo
[32] = tested on: Oryctolagus cuniculus; experiment: Effect on QTc time interval in New Zealand White rabbit at 3 mg/kg, iv administered as 10 mins infusion measured for 2 mins by ECG analysis; type: ADME, organism-based; details: in vivo
[33] = tested on: Plasma; experiment: Free plasma concentration in New Zealand White rabbit at 3 mg/kg, iv administered as 10 mins infusion measured up to 30 mins post dose; type: ADME, organism-based, Oryctolagus cuniculus; details: in vivo
[34] = AUC in mouse at 6 mg/kg, po; type: ADME, organism-based; details: in vivo
[35] = AUC in rat at 5 mg/kg, po; type: ADME, organism-based; details: in vivo
[36] = tested on: Plasma; experiment: Drug uptake in New Zealand White rabbit plasma at 20 mg/kg, iv administered as 10 mins infusion measured up to 30 mins post dose; type: ADME, organism-based, Oryctolagus cuniculus; details: in vivo
[37] = tested on: Oryctolagus cuniculus; experiment: Effect on QTc time interval in New Zealand White rabbit at 10 mg/kg, iv administered as 10 mins infusion measured for 2 mins by ECG analysis; type: ADME, organism-based; details: in vivo

CC(=O)N1CCN(c2cccc(-c3cc(-c4ccnn4CC(F)(F)F)c4c(N)ncnn34)c2)C(=O)C1(C)C
half-life at 0.5 µM [1]: 0.433 h
remaining at 10 min, 0.5 µM [2]: 62%
Time [3]: > 10 ms
Cmax [4]: 1.8 µM
remaining at 10 min, 0.5 µM [5]: 70%
AUC(0-t) at 24 h [6]: 4.1 µM·h
half-life at 0.5 µM [7]: 0.95 h
half-life at 0.5 µM [8]: 0.517 h
remaining at 10 min, 0.5 µM [9]: 80%

CC(=O)N1CCN(c2cccc(-c3cc(C(F)(F)F)c4c(N)ncnn34)c2)C(=O)C1(C)C
half-life at 0.5 µM [1]: 0.15 h
remaining at 10 min, 0.5 µM [2]: 30%
remaining at 10 min, 0.5 µM [5]: 52%
half-life at 0.5 µM [7]: 0.683 h
half-life at 0.5 µM [8]: 0.233 h
remaining at 10 min, 0.5 µM [9]: 83%

CC(=O)N1CCN(c2cc(-c3cc(C(F)(F)F)c4c(N)ncnn34)ccc2C#N)C(=O)C1(C)C
half-life at 0.5 µM [1]: 1.2 h
clearance [10]: 17 mL/min/kg
remaining at 10 min, 0.5 µM [2]: 81%
Vd [11]: 2.7 L/kg
Vd [12]: 3.6 L/kg
Cmax [4]: 8.2 µM
Cmax [13]: 14 µM
remaining at 10 min, 0.5 µM [5]: 91%
half-life [14]: 29 h
F [15]: 75%
half-life [16]: 4.9 h
concentration [17]: 27 µM
AUC(0-t) at 24 h [6]: 17 µM·h
clearance [18]: 4.6 mL/min/kg
Cmax [19]: 5.9 µM
Vd [20]: 0.5 L/kg
bioavailability [21]: 94%
Cp(f) [22]: 2.4 µM
concentration [23]: 10 µM
bioavailability [24]: 71%
half-life [25]: 3.5 h
Cmax [26]: 6.3 µM
half-life at 0.5 µM [7]: > 2 h
Vd [27]: 0.61 L/kg
Cp(f) [28]: 4.8 µM
half-life [29]: 10 h
clearance [30]: 2.3 mL/min/kg
half-life at 0.5 µM [8]: 1.12 h
Time [31]: 25 ms
Time [32]: 2.2 ms
Cp(f) [33]: 0.9 µM
AUC [34]: 12 µM·h
remaining at 10 min, 0.5 µM [9]: 94%
AUC [35]: 54 µM·h
concentration [36]: 54 µM
Time [37]: 13 ms

CC(=O)N1CCN(c2cc(-c3cc(Cl)c4c(N)ncnn34)ccc2C)C(=O)C1(C)C
remaining at 10 min, 0.5 µM [2]: 66%
remaining at 10 min, 0.5 µM [5]: 60%
remaining at 10 min, 0.5 µM [9]: 82%

CC(=O)N1C[C@H](C)N(c2cc(-c3cc(Cl)c4c(N)ncnn34)ccc2C#N)C(=O)C1(C)C
remaining at 10 min, 0.5 µM [2]: 85%
remaining at 10 min, 0.5 µM [5]: 94%
remaining at 10 min, 0.5 µM [9]: 99%

CC(=O)N1CCN(c2cccc(-c3cc(-c4ccnn4C4CCOCC4)c4c(N)ncnn34)c2)C(=O)C1(C)C
remaining at 10 min, 0.5 µM [2]: 53%
remaining at 10 min, 0.5 µM [5]: 81%
remaining at 10 min, 0.5 µM [9]: 77%

COc1ccc(-c2cc(Cl)c3c(N)ncnn23)cc1N1CCN(C(C)=O)C(C)(C)C1=O
remaining at 10 min, 0.5 µM [2]: 94%
remaining at 10 min, 0.5 µM [5]: 91%
remaining at 10 min, 0.5 µM [9]: 94%

CC(=O)N1C[C@H](C)N(c2cc(-c3cc(C(F)(F)F)c4c(N)ncnn34)ccc2C#N)C(=O)C1(C)C
remaining at 10 min, 0.5 µM [2]: 100%
remaining at 10 min, 0.5 µM [5]: 91%
remaining at 10 min, 0.5 µM [9]: 89%

CC(=O)N1CCN(c2cc(-c3cc(C(F)(F)F)c4c(N)ncnn34)ccc2S(C)(=O)=O)C(=O)C1(C)C
remaining at 10 min, 0.5 µM [2]: 97%
remaining at 10 min, 0.5 µM [5]: 96%
remaining at 10 min, 0.5 µM [9]: 96%

CC(=O)N1CCN(c2cc(-c3cc(Cl)c4c(N)ncnn34)ccc2C#N)C(=O)C1(C)C
remaining at 10 min, 0.5 µM [2]: 89%
remaining at 10 min, 0.5 µM [5]: 89%
remaining at 10 min, 0.5 µM [9]: 90%

CC(=O)N1CCN(c2cc(-c3cc(Cl)c4c(N)ncnn34)ccc2C(F)(F)F)C(=O)C1(C)C
remaining at 10 min, 0.5 µM [2]: 88%
remaining at 10 min, 0.5 µM [5]: 87%
remaining at 10 min, 0.5 µM [9]: 95%
